In PubChem BioAssay (NCI):
“And” between values parts separate entries of the source, which are not always exact repeats. Equal entries are not always repeated.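 Exposure lasted 48 hours, with cells grown in 96-well plates and compounds tested at five concentrations. Abbreviation: GI50, concentration required for 50% inhibition of growth. TGI denotes the concentration required for complete inhibition of growth.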

Tests used:
Test in all cases: DTP human tumour cell line panel, 48 h
[1] = tested on: SNB-19 CNS
[2] = tested on: UO-31 renal
[3] = tested on: NCI-H460 lung
[4] = tested on: MCF7 breast
[5] = tested on: M14 melanoma
[6] = tested on: LOX IMVI melanoma
[7] = tested on: A498 renal
[8] = tested on: NCI-H522 lung
[9] = tested on: PC-3 prostate
[10] = tested on: HCC-2998 colon

SMILES | GI50 [1] [µM] | TGI [1] | GI50 [2] [µM] | TGI [2] | GI50 [3] [µM] | TGI [3] | GI50 [4] [µM] | TGI [4] [µM] | GI50 [5] [µM] | TGI [5] [µM] | GI50 [6] [µM] | TGI [6] | GI50 [7] [µM] | TGI [7] | GI50 [8] [µM] | TGI [8] | GI50 [9] [µM] | TGI [9] [µM] | GI50 [10] [µM] | TGI [10] [µM]
COc1ccc2c(c1)C(=O)c1c-2c(Nc2ccc(Cl)cc2)nc2ccccc12 | 14.4 | 44 µM | 25.8 | > 100 µM | > 100 | > 100 µM | > 100 | > 100 | 31 | > 100 | 14.2 | 54.9 µM | 5.01 | 18.9 µM | 10.1 | 45.5 µM | 15.5 | 63.3 | 22.1 | > 100
CC(=O)O[C@]1(C(C)=O)CC[C@H]2[C@@H]3C=C(C)C4=CC(=O)CC[C@]4(C)[C@H]3CC[C@@]21C | > 82.9 | > 100 µM | > 100 | > 100 µM | 98.5 | > 100 µM | > 100 | > 100 | > 85.6 | > 100 | > 100 | > 100 µM | > 75.7 | > 100 µM | 53.2 | > 100 µM | 42.6 | > 100 | > 100 | > 100
NC(=O)c1cc(-c2ccc(F)cc2)cc(-c2ccncc2)c1N | 24.3 | > 25 µM | 7.88 | > 25 µM | > 25 | > 25 µM | > 25 | > 25 | > 25 | > 25 | > 25 | > 25 µM | 4.17 | > 23.6 µM | > 25 | > 25 µM | > 25 | > 25 | > 25 | > 25
C=C1CC/C=C(\C)C(=O)C[C@@H]2[C@@H]1CC2(C)C | – | 25.7 µM | – | 7.64 µM | – | 12 µM | – | 5.94 | – | 19.7 | – | 7.06 µM | – | > 30 µM | – | 2.96 µM | – | 26.1 | – | 12.7
N#CSCC1CC(O)(c2ccccc2)CC(c2ccc(F)cc2)O1 (stereo unspecified) | 4.14 | 13.7 µM | 1.82 | 6.03 µM | 2.08 | 4.34 µM | 2.64 | 8.33 | 1.62 | 3.13 | 1.7 | 3.1 µM | 1.9 | 4.1 µM | 1.4 | 3.1 µM | 2.49 | 8.38 | 4.02 | 17.6
Cc1c(COc2cc(OCc3cccc(C#N)c3)c(CN3C[C@H](O)C[C@@H]3C(=O)O)cc2Cl)cccc1-c1ccc2c(c1)OCCO2 | 15.6 | 29 µM | 16.6 | 30.2 µM | 14 | 29 µM | 4.66 | 19.3 | 13.2 | 27.1 | 4.28 | 16 µM | 18.7 | 33.3 µM | 19.8 | 42.5 µM | 2.54 | 7.7 | 15.6 | 29.2
CCCCCCCCCCCC1CCCC(C)N1 (stereo unspecified) | 11.4 | 25.3 µM and 155 µM | 3.29 | 16.4 µM and 105 µM | 3.67 | 12.5 µM and 118 µM | 3.24 | – | 8.47 | 31.7 | 3.62 | 16.1 µM and > 70.7 µM | 16.2 | 31.9 µM and 154 µM | 7.29 | 19.9 µM and 96.4 µM | 5.57 | 45 | 2.05 | –
CC1OC(OC2C(O[C@H]3CC[C@@]4(C)C(=CC[C@H]5[C@@H]6C[C@@H]7O[C@]8(CC[C@H](C)CN8)[C@@H](C)[C@@H]7[C@@]6(C)CC[C@@H]54)C3)OC(CO)C(O)C2OC2OC(CO)C(O)C(O)C2O)C(O)C(O)C1O (stereo partly specified) | – | 35.6 µM | – | 33.2 µM | – | 31.6 µM | – | 32.9 | – | 37.8 | – | 83.6 µM | – | 42.9 µM | – | 30.3 µM | – | 33.5 | – | 32.2
COc1ccc(Cn2cc3c(c2-c2ccc(OC)cc2)CCc2cnoc2-3)cc1 | 0.679 | > 100 µM | 0.797 | > 100 µM | 0.347 | 1.96 µM | 0.389 | > 100 | 0.404 | > 33.2 | 0.706 | > 100 µM | 0.213 | 0.749 µM | 0.199 | 0.572 µM | 0.602 | > 100 | 0.846 | 5.92
O=C(NCc1ccc(Cn2c(=O)sn(-c3ccccc3)c2=O)cc1)OCc1ccc2c(Br)cc(Br)c(O)c2n1 | 1.55 | 2.9 µM | 0.392 | 1.77 µM | 1.48 | 3.37 µM | 0.399 | 1.96 | 0.412 | 1.51 | 0.171 | 0.348 µM | 1.53 | 2.9 µM | 0.309 | 1.08 µM | 0.727 | 2.18 | 1.8 | 3.41
CCN(C(=O)c1cc(F)ccc1Oc1cncnc1N1CC2(CCN(CC3CCC(NS(=O)(=O)CC)CC3)CC2)C1)C(C)C (stereo unspecified) | > 100 | > 100 µM | > 100 | > 100 µM | > 100 | > 100 µM | > 100 | > 100 | > 100 | > 100 | > 100 | > 100 µM | > 100 | > 100 µM | > 100 | > 100 µM | > 100 | > 100 | > 100 | > 100
Cc1occc1C(=S)Nc1ccc(Cl)c(C(=O)OC(C)C2CC2)c1 (stereo unspecified) | – | 39 µM | – | 30.5 µM | – | > 100 µM | – | 57.3 | – | 53.4 | – | 49.5 µM | – | 48.2 µM | – | 32.9 µM | – | 41.3 | – | 39.5
CC[C@@H](C(=O)[C@@H](C)[C@@H](O)[C@H](C)[C@@H]1O[C@@H]([C@@H](CC)C(=O)N(CC)CC)CC[C@@H]1C)C1O[C@]2(C=CC(=O)[C@]3(CC[C@@](C)([C@H]4CC[C@](O)(CC)[C@H](C)O4)O3)O2)[C@H](C)C[C@@H]1C (stereo partly specified) | 3.31 | > 100 µM | 2.42 | 10.2 µM | 2.11 | 4.94 µM | 2.41 | 8.11 | – | – | 1.58 | 3.17 µM | 2.25 | 7.51 µM | 2.02 | 6.46 µM | 2.6 | 24.7 | 1.97 | 4.79
